Results: ChEMBL document CHEMBL4414609, “High-Affinity Alkynyl Bisubstrate Inhibitors of Nicotinamide N-Methyltransferase (NNMT)” (J Med Chem, 2019)
Values belong to the molecule of their own block, whether it stands above or below them.

Assays:
[1] = molecular target: T1, Nicotinamide N-methyltransferase (Homo sapiens, UniProt P40261); experiment: Inhibition of N-terminal His6-tagged wild type human NNMT expressed in Escherichia coli NiCo21(DE3) assessed as reduction in 1-methylquinolinium level using quinoline as substrate in presence of SAM and measured every 27 seconds for 5.5 mins by fluorescence-based assay; details: read-out: pKi (converted)
T1 sequence (P40261 whole entry): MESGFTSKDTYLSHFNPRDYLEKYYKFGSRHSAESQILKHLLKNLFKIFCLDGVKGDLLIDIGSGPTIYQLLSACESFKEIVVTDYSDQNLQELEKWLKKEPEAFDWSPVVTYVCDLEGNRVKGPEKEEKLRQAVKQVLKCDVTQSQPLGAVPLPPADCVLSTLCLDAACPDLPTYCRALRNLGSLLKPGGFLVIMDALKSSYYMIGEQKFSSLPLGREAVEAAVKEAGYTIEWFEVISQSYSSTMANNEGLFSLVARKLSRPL

U2OS = experiment: Cytotoxicity against human U2OS cells at 100 uM after 48 hrs by CellTiter-Glo luminescent cell viability; type: cell-based
[2] = Permeability across apical to basolateral side in human Caco2 cells after 60 mins by HPLC-MS/MS analysis; type: ADME, cell-based; details: caco-2, 1 h
[3] = molecular target: T2, Nicotinamide N-methyltransferase (Homo sapiens) (UniProt P40261); details: K562, Lysate
T2 sequence (whole entry): T1 sequence (P40261 whole entry)

SMILES: COC(=O)[C@@H](N)CC[C@H](C#Cc1cccc(C(N)=O)c1)C[C@H]1O[C@@H](n2cnc3c(N)ncnc32)[C@H](O)[C@@H]1O
- Activity (U2OS): Non-Toxic
- Ki [1]: 0.437 µM
- permeability [2]: Impermeable

SMILES: NC(=O)c1cccc(CC[C@@H](CC[C@H](N)C(=O)O)C[C@H]2O[C@@H](n3cnc4c(N)ncnc43)[C@H](O)[C@@H]2O)c1
- Ki [1]: 0.00468 µM

SMILES: Nc1ncnc2c1ncn2[C@@H]1O[C@H](CCCC[C@H](N)C(=O)O)[C@@H](O)[C@H]1O
- Ki [1]: 21.4 µM

SMILES: Nc1cccc2c(C#C[C@@H](CC[C@H](N)C(=O)O)C[C@H]3O[C@@H](n4cnc5c(N)ncnc54)[C@H](O)[C@@H]3O)cccc12
- Ki [1]: 3.72 µM

SMILES: CO[C@@H]1O[C@H](C[C@@H](C#Cc2cccc(C(N)=O)c2)CC[C@H](N)C(=O)O)[C@@H](O)[C@H]1O
- Ki [1]: 77.6 µM

SMILES: NC(=O)c1cccc(CCN(CCC[C@H](N)C(=O)O)C[C@H]2O[C@@H](n3cnc4c(N)ncnc43)[C@H](O)[C@@H]2O)c1
- Ki [1]: 0.0891 µM

SMILES: NC(=O)c1cccc(C#C[C@H](CC[C@H](N)C(=O)O)C[C@H]2O[C@@H](n3cnc4c(N)ncnc43)[C@H](O)[C@@H]2O)c1
- Ki [1]: 0.123 µM

SMILES: NC(=O)c1cccc(C#C[C@@H]2C[C@H]2[C@H]2O[C@@H](n3cnc4c(N)ncnc43)[C@H](O)[C@@H]2O)c1
- Ki [1]: 3.89 µM

SMILES: NC(=O)NCC[C@H](C#Cc1cccc(C(N)=O)c1)C[C@H]1O[C@@H](n2cnc3c(N)ncnc32)[C@H](O)[C@@H]1O
- ΔTm [3]: 5 °C
- Activity (U2OS): Non-Toxic
- Ki [1]: 0.0759 µM
- permeability [2]: Impermeable

SMILES: NC(=O)c1cccc(CCN(CC[C@H](N)C(=O)O)C[C@H]2O[C@@H](n3cnc4c(N)ncnc43)[C@H](O)[C@@H]2O)c1
- Ki [1]: 0.912 µM

SMILES: NC(=O)c1cc(C#C[C@@H](CC[C@H](N)C(=O)O)C[C@H]2O[C@@H](n3cnc4c(N)ncnc43)[C@H](O)[C@@H]2O)c2c(c1)OCO2
- Ki [1]: 0.0324 µM

SMILES: NC(=O)c1cccc(C#C[C@@H](CCCC(=O)O)C[C@H]2O[C@@H](n3cnc4c(N)ncnc43)[C@H](O)[C@@H]2O)c1
- Ki [1]: 22.4 µM

SMILES: Nc1ncnc2c1ncn2[C@@H]1O[C@H](C[C@@H](C#Cc2ccc3c(c2)C(=O)NCC3)CC[C@H](N)C(=O)O)[C@@H](O)[C@H]1O
- Ki [1]: 0.055 µM

SMILES: NC(=O)c1cccc(CC[C@H](CC[C@H](N)C(=O)O)C[C@H]2O[C@@H](n3cnc4c(N)ncnc43)[C@H](O)[C@@H]2O)c1
- Ki [1]: 0.107 µM

SMILES: NC(=O)CCC[C@H](C#Cc1cccc(C(N)=O)c1)C[C@H]1O[C@@H](n2cnc3c(N)ncnc32)[C@H](O)[C@@H]1O
- Ki [1]: 1.05 µM

SMILES: C#C[C@@H](CC[C@H](N)C(=O)O)C[C@H]1O[C@@H](n2cnc3c(N)ncnc32)[C@H](O)[C@@H]1O
- Ki [1]: 47.9 µM

SMILES: Nc1ncnc2c1ncn2[C@@H]1O[C@H](C[C@@H](C#Cc2ccccc2)CC[C@H](N)C(=O)O)[C@@H](O)[C@H]1O
- Ki [1]: 12.6 µM

SMILES: NC(=O)c1cccc(C#CCC[C@H]2O[C@@H](n3cnc4c(N)ncnc43)[C@H](O)[C@@H]2O)c1
- Ki [1]: 0.263 µM

SMILES: NCCC[C@H](C#Cc1cccc(C(N)=O)c1)C[C@H]1O[C@@H](n2cnc3c(N)ncnc32)[C@H](O)[C@@H]1O
- Activity (U2OS): Non-Toxic
- Ki [1]: 0.0575 µM
- permeability [2]: 13 nm/s

More lines, main results first:

- Ki [1]: 0.00501 µM
SMILES: NC(=O)c1cncc(C#C[C@@H](CC[C@H](N)C(=O)O)C[C@H]2O[C@@H](n3cnc4c(N)ncnc43)[C@H](O)[C@@H]2O)c1

- Ki [1]: 0.000191 µM
SMILES: NC(=O)c1cc(C#C[C@@H](CC[C@H](N)C(=O)O)C[C@H]2O[C@@H](n3cnc4c(N)ncnc43)[C@H](O)[C@@H]2O)ccc1Cl

- Ki [1]: 19.5 µM
SMILES: NC(=O)c1ccccc1C#C[C@@H](CC[C@H](N)C(=O)O)C[C@H]1O[C@@H](n2cnc3c(N)ncnc32)[C@H](O)[C@@H]1O

- Ki [1]: 0.00263 µM
SMILES: NC(=O)c1cc(C#C[C@@H](CC[C@H](N)C(=O)O)C[C@H]2O[C@@H](n3cnc4c(N)ncnc43)[C@H](O)[C@@H]2O)ccc1C(F)(F)F

- Ki [1]: 0.00024 µM
SMILES: NC(=O)c1cccc(C#C[C@@H](CCC[C@H](N)C(=O)O)C[C@H]2O[C@@H](n3cnc4c(N)ncnc43)[C@H](O)[C@@H]2O)c1

- Ki [1]: 0.0355 µM
SMILES: NC(=O)c1ccnc(C#C[C@@H](CC[C@H](N)C(=O)O)C[C@H]2O[C@@H](n3cnc4c(N)ncnc43)[C@H](O)[C@@H]2O)c1

- Ki [1]: 1.86 µM
SMILES: Nc1ncnc2c1ncn2[C@@H]1O[C@H](C[C@@H](C#Cc2ccc3c(c2)C(=O)NC3)CC[C@H](N)C(=O)O)[C@@H](O)[C@H]1O

- Ki [1]: 0.195 µM
SMILES: Nc1ncnc2c1ncn2[C@@H]1O[C@H](C[C@@H](C#Cc2cccc(S(N)(=O)=O)c2)CC[C@H](N)C(=O)O)[C@@H](O)[C@H]1O

- Ki [1]: 0.00186 µM
SMILES: NC(=O)c1cc(C#C[C@@H](CC[C@H](N)C(=O)O)C[C@H]2O[C@@H](n3cnc4c(N)ncnc43)[C@H](O)[C@@H]2O)ccc1F

- Ki [1]: 0.00676 µM
SMILES: NC(=O)c1cccc(C#C[C@@H](CC[C@H](N)C(=O)O)C[C@H]2O[C@@H](n3cnc4c(N)ncnc43)[C@H](O)[C@@H]2O)n1

- Ki [1]: 5.75 µM
SMILES: NC(=O)c1ccc(C#C[C@@H](CC[C@H](N)C(=O)O)C[C@H]2O[C@@H](n3cnc4c(N)ncnc43)[C@H](O)[C@@H]2O)cc1

- Ki [1]: 0.017 µM
- permeability [2]: Impermeable
SMILES: NC(=O)c1cccc(C#C[C@@H](CC[C@H](N)C(N)=O)C[C@H]2O[C@@H](n3cnc4c(N)ncnc43)[C@H](O)[C@@H]2O)c1
- Activity (U2OS): Non-Toxic

- Ki [1]: 0.00339 µM
SMILES: Cc1ccc(C#C[C@@H](CC[C@H](N)C(=O)O)C[C@H]2O[C@@H](n3cnc4c(N)ncnc43)[C@H](O)[C@@H]2O)cc1C(N)=O

- Ki [1]: 0.00891 µM
SMILES: NC(=O)c1cc(C#C[C@@H](CC[C@H](N)C(=O)O)C[C@H]2O[C@@H](n3cnc4c(N)ncnc43)[C@H](O)[C@@H]2O)ccn1
